The target of this assay is T1, rASH4 (ASH4) (Toxoplasma gondii, UniProt A0A125YZ56).
T1 construct: full-length ORF from RH cDNA, N-terminal 6xHis tag (pET-28A, pIF22), E. coli BL21-CodonPlus(DE3)-RIL; active-site S124, G2 myristoylation site
T1 sequence (A0A125YZ56 1-260): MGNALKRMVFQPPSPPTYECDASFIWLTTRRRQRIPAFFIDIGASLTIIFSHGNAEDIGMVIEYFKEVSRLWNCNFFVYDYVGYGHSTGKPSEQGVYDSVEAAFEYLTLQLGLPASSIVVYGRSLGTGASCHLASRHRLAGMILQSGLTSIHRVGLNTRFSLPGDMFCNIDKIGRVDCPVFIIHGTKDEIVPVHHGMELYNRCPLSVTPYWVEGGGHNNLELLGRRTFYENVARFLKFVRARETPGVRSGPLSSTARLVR
The experiment in a line: fluorogenic hydrolysis assay. It counts as biochemical. As to conditions: 10 uM substrate, 150 nM enzyme.

Structures are written as SMILES.

Experimental findings from article PMC6147133, “The Toxoplasma gondii Active Serine Hydrolase 4 Regulates Parasite Division and Intravacuolar Parasite Architecture” (mSphere, 2018) are described below.

In the case of `CC(=O)Oc1ccc2c(C)cc(=O)oc2c1` [4MU-acetate, 4-methyl-2-oxo-2H-chromen-7-yl acetate], the fluorogenic hydrolysis assay result is recorded as “with the two-carbon acetyl ester having the highest rate of hydrolysis”.
